The nature of data set [1]: Solid stability test (stability chamber, HPLC total impurity). To be noted: solid, packaged, 25° C.±2° C., relative humidity 60%±2%. The data set is classed as physicochemical.
Data set [2] relates to Candida albicans ATCC10231. Briefly: Candida albicans vaginitis in mice, intragastric administration. The data set is classed as in vivo, KM mice. To be noted: logarithm of the CFU values, mean ± SD of 20 mice, 20 mg/kg intragastric once a day.
Data set [3] relates to Candida albicans ATCC10231. Briefly: Systemic fungal infection in mice, intravenous administration. It is filed as in vivo, ICR mice.
Data set [4] concerns Candida albicans ATCC10231. The data set can be described thus: Systemic fungal infection in mice, intragastric administration. It is filed as in vivo, ICR mice. To be noted: for responders at 20 mg/kg: Candida albicans, ATCC10231, po.
Data set [5] has as its system Candida albicans ATCC10231. The data set can be described thus: Candida albicans vaginitis in mice, intravenous administration. To be noted: logarithm of the CFU values, mean ± SD of 20 mice; for vaginal fungal load of mice, day 5: 20 mg/kg tail vein once a day for 5 days, day 5 after infection; for vaginal fungal load of mice, day 3: 20 mg/kg tail vein once a day, day 3 after infection.
Method: KM mice, weighing 18-22 g, female, provided by Hubei Experimental Animal Center.
The standard strain of Candida albicans was purchased from the American Type Culture
Collection, strain number ATCC10231.
Prior to being infected with Candida albicans, animals in each group were given subcutaneous injections of 0.5 ml of estradiol benzoate (2 mg/ml) for 6 consecutive days to allow them to enter the estrus phase. Injections were continued once every 2 days until the completion of the experiment. After 6 days, 20 μl of Candida albicans solution in a concentration of 3.5×10^6 CFU/ml was injected vaginally into each mouse, causing a vaginal infection model. From the first day after infection, each group of animals was given 20 mg/kg of the corresponding drug (calculated as posaconazole) in the tail vein at an administration volume of 0.1 ml/10 g once a day for 5 consecutive days. The model group was given an equal volume of solvent (physiological saline). On the 3rd and 5th days after infection, the vagina of mice were wiped with sterile cotton swabs. The cotton swabs were soaked in 0.9 ml physiological saline. The fungal solutions were diluted to 10-fold increments to give a series of concentrations, and then 100 μl of each concentration of the bacteria solutions was taken and inoculated on Sabourand's dextrose agar solid medium containing 0.5% (W/V) chloramphenicol to observe the fungal load of Candida albicans on the vagina.

Data set [6] has as its system Aspergillus Fumigutus (AF) strains. Briefly: Aspergillus fumigatus keratitis in rats, intravenous administration. To be noted: 10 mg/kg tail vein once daily for 5 days; mean ± SD of 10 rats.
A short description of data set [7]: Determination of solubility in deionized water (HPLC, external standard). The settings on record: for Solubility: 25±2° C., after 30 min.
Data set [8] has as its system Aspergillus fumigatus AF293. Briefly: Lung Aspergillus fumigatus infection in immunosuppressed mice, intravenous administration. The settings on record: for responders at 20 mg/kg: Aspergillus fumigatus, AF293, in Mus musculus, iv; for lung fungal load: mouse lung tissue, seven days later, 20 mg/kg tail vein once daily for 5 days, mean ± SD.
Data set [9] in a line: Pharmacokinetics after single intragastric administration to rats. It is filed as in vivo, SD rats. The settings on record: plasma posaconazole, 2.5 mg/kg (calculated as posaconazole). The procedure:
Administration amount: 2.5 mg/kg (calculated as posaconazole)
Administration volume: 10 ml/kg
Drug concentration: 0.25 mg/mL
Administration vehicle: the positive drug posaconazole group used CMC—Na, while other groups used normal saline (physiological saline)
Administration route: intragastric administration
Experimental animals: SD rats, SPF grade, weighing 180-220 g, equal amount of male and female. Rats were randomly divided into groups of 6 with 3 males and 3 females.
Experimental protocol: after oral intragastric administration, blood samples were collected at different time points to determine the concentration of posaconazole in the plasma and the pharmacokinetic parameters of posaconazole were obtained.

The nature of data set [10]: In vitro metabolic stability in human plasma. The settings on record: 37° C., 10 μM compound, metabolic half-life. It is filed as in vitro ADME. In a few lines: (§1)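 Human or rat plasma, preincubated 5 min at 37 °C, or intestinal S9 at 37 °C, spiked from 1 mM stock; triplicates sampled at 1, 2, 5, 15 and 30 min into cold internal standard. HPLC quantitation; half-life by non-compartmental analysis.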

A short description of data set [11]: In vitro metabolic stability in human intestine S9. The data set is classed as in vitro ADME. The settings on record: 37° C., 10 μM compound, 1 mg/mL S9, NADPH regeneration system. In a few lines:
as §1

Data set [12] can be described thus: In vitro metabolic stability in rat plasma. It is filed as in vitro ADME. The settings on record: 37° C., 10 μM compound, metabolic half-life. The procedure, abridged: as §1
Data set [13] is described as follows: In vitro metabolic stability in rat intestine S9. The data set is classed as in vitro ADME. The settings on record: 37° C., 10 μM compound, 1 mg/mL S9, NADPH regeneration system. The procedure, abridged: as §1
Where [14] appears, read: 24 h, read-out: survival rate of mice, day 1.
[15] abbreviates: 48 h, read-out: survival rate of mice, day 2.
[16] abbreviates: 72 h, read-out: survival rate of mice, day 3.
Where [17] appears, read: 96 h, read-out: survival rate of mice, day 4.
The mark [18] stands for this setting: 120 h, read-out: survival rate of mice, day 5.
Setting [19] is: 144 h, read-out: survival rate of mice, day 6.
Setting [20] is: 168 h, read-out: survival rate of mice, day 7.
[21] abbreviates: 24 h, read-out: survival rate of mice, day 1, 20 mg/kg intragastric once daily for 5 days, day 1.
Where [22] appears, read: 48 h, read-out: survival rate of mice, day 2, 20 mg/kg intragastric once daily for 5 days, day 2.
[23] abbreviates: 72 h, read-out: survival rate of mice, day 3, 20 mg/kg intragastric once daily for 5 days, day 3.
Setting [24] is: 96 h, read-out: survival rate of mice, day 4, 20 mg/kg intragastric once daily for 5 days, day 4.
Where [25] appears, read: 120 h, read-out: survival rate of mice, day 5, 20 mg/kg intragastric once daily for 5 days, day 5.
Where [26] appears, read: 144 h, read-out: survival rate of mice, day 6, 20 mg/kg intragastric once daily for 5 days, day 6.
[27] abbreviates: 168 h, read-out: survival rate of mice, day 7, 20 mg/kg intragastric once daily for 5 days, day 7.
Where [28] appears, read: 24 h, read-out: survival rate of mice, day 1, 20 mg/kg tail vein once daily for 5 days, day 1.
Where [29] appears, read: 48 h, read-out: survival rate of mice, day 2, 20 mg/kg tail vein once daily for 5 days, day 2.
[30] abbreviates: 72 h, read-out: survival rate of mice, day 3, 20 mg/kg tail vein once daily for 5 days, day 3.
Where [31] appears, read: 96 h, read-out: survival rate of mice, day 4, 20 mg/kg tail vein once daily for 5 days, day 4.
The mark [32] stands for this setting: 120 h, read-out: survival rate of mice, day 5, 20 mg/kg tail vein once daily for 5 days, day 5.
Where [33] appears, read: 144 h, read-out: survival rate of mice, day 6, 20 mg/kg tail vein once daily for 5 days, day 6.
Where [34] appears, read: 168 h, read-out: survival rate of mice, day 7, 20 mg/kg tail vein once daily for 5 days, day 7.

Like-named read-outs stand apart in the source and are kept apart here. Where only a bound is given, the exact number is not on record here.

A word on the Solubility: it is the concentration that dissolves in the medium under given conditions. Lower therefore signals little dissolved substance. As to `CC[C@@H]([C@H](C)O)n1ncn(-c2ccc(N3CCN(c4ccc(OC[C@@H]5CO[C@@](Cn6c[n+](C(C)OC(=O)N(C)c7ncccc7COC(=O)[C@@H](N)CCCN)cn6)(c6ccc(F)cc6F)C5)cc4)CC3)cc2)c1=O` (some centres unmarked) [ST0003], the “Total impurity increment in 30 days” value in [1] is reported as 0.68%. For the same compound, the “vaginal fungal load of mice, day 3” value in [2] (20 mg/kg) was found to be 4.23 ± 0.41; in data set [5] (20 mg/kg) it was 4.11 ± 0.30. Also, the “vaginal fungal load of mice, day 5” value in data set [2] (20 mg/kg) was 4.05 ± 0.37; in data set [5] (20 mg/kg), 3.85 ± 0.28. For the same compound, in data set [2] (20 mg/kg), the “vaginal fungal load of mice, day 7” value is given as 3.28 ± 0.36. The “vaginal fungal load of mice, day 11” value in data set [2] (20 mg/kg) is listed as 2.47 ± 0.18. In addition, the responders at 20 mg/kg in [3] (setting [14]), in [3] (setting [15]), in data set [3] (setting [16]), in data set [3] (setting [17]), in data set [3] (setting [18]) and in data set [3] (setting [19]) was 100% in each case. For the same compound, the responders at 20 mg/kg stood at 90% in data set [3] (setting [20]); 100% in [4] (setting [21]); 100% in data set [4] (setting [22]); 100% in data set [4] (setting [23]); 90% in data set [4] (setting [24]); 80% in [4] (setting [25]). The responders at 20 mg/kg came to 80% in [4] (setting [26]); 80% in data set [4] (setting [27]); 100% in [8] (setting [28]); 100% in data set [8] (setting [29]); 100% in data set [8] (setting [30]); 100% in data set [8] (setting [31]). Also, the values for the responders at 20 mg/kg in data set [8] (setting [32]), in data set [8] (setting [33]) and in [8] (setting [34]) were 100%, 90% and 90%, respectively. Moreover, the “Amount of active fungi in cornea at day 7” value in [6] is 1.48 ± 0.38 10^3 CFU/ml. Also, in [7], the Solubility is listed as over 50 mg/mL. For the same compound, in data set [8] (20 mg/kg), the lung fungal load is listed as 1.39 ± 0.32 10^4 CFU/ml.

The solubility is the dissolved amount per volume that the medium holds. A higher solubility goes with much dissolved substance. Consider `CC[C@@H]([C@H](C)O)n1ncn(-c2ccc(N3CCN(c4ccc(OC[C@@H]5CO[C@@](Cn6c[n+](C(C)OC(=O)N(C)c7ncccc7COC(=O)[C@@H](N)CCCNC(N)=O)cn6)(c6ccc(F)cc6F)C5)cc4)CC3)cc2)c1=O` (some centres unmarked) [ST0012], for which the results for the “vaginal fungal load of mice, day 3” value in data set [2] and in data set [5] were 4.17 ± 0.43 and 4.01 ± 0.28, respectively. Also, the entries for the “vaginal fungal load of mice, day 5” value in data set [2] and in data set [5] were 4.12 ± 0.35 and 3.75 ± 0.26, respectively. For the same compound, the “vaginal fungal load of mice, day 7” value in data set [2] is recorded as 3.10 ± 0.34. The “vaginal fungal load of mice, day 11” value in data set [2] turned out to be 2.42 ± 0.19. Further, the responders at 20 mg/kg in data set [3] (setting [14]), in data set [3] (setting [15]), in data set [3] (setting [16]), in data set [3] (setting [17]), in [3] (setting [18]) and in [3] (setting [19]) was 100% throughout. Besides, the responders at 20 mg/kg came to 90% in data set [3] (setting [20]); 100% in [4] (setting [21]); 100% in [4] (setting [22]); 100% in data set [4] (setting [23]); 80% in data set [4] (setting [24]); 80% in [4] (setting [25]). Further, the responders at 20 mg/kg in data set [4] (setting [26]) is 80%; in data set [4] (setting [27]) it was 80%; in data set [8] (setting [28]), 100%; in [8] (setting [29]) it was 100%; in data set [8] (setting [30]), 100%; in data set [8] (setting [31]), 100%. Further, the values for the responders at 20 mg/kg in data set [8] (setting [32]), in [8] (setting [33]) and in data set [8] (setting [34]) were 100%, 90% and 90%, respectively. In addition, in data set [6], the “Amount of active fungi in cornea at day 7” value is 1.45 ± 0.37 10^3 CFU/ml. The compound further had a solubility at 30 min in data set [7] (25 °C, water, thermodynamic from solid) of over 50 mg/mL. Further, in data set [8], the lung fungal load is on record as 1.42 ± 0.30 10^4 CFU/ml.

Broadly, the Cmax is the peak of the concentration-time curve. As for `CC[C@@H]([C@H](C)O)n1ncn(-c2ccc(N3CCN(c4ccc(OC[C@@H]5CO[C@@](Cn6c[n+](C(C)OC(=O)NCC(=O)[O-])cn6)(c6ccc(F)cc6F)C5)cc4)CC3)cc2)c1=O.[Cl-].[Na+]` (some centres unmarked) [ST0019], in data set [9], the AUClast is 1985 ± 358 ng·h/mL, the Cmax is given as 102 ± 26 ng/mL and the T1/2 was 684.6 ± 195 min.

Consider `CCC(O[C@@H](C)[C@H](CC)n1ncn(-c2ccc(N3CCN(c4ccc(OC[C@@H]5CO[C@@](Cn6cncn6)(c6ccc(F)cc6F)C5)cc4)CC3)cc2)c1=O)OP(=O)([O-])[O-].[Na+].[Na+]` (some centres unmarked) [ST0093], for which, in data set [10], the “Human plasma T1/2” value worked out at 18.95 ± 2.76 min. Moreover, the “Human intestine S9 T1/2” value in data set [11] amounted to 61.98 ± 14.26 min. Further, the “Rat plasma T1/2” value in [12] worked out at 15.69 ± 4.88 min. Also, in data set [13], the “Rat intestine S9 T1/2” value stood at 57.25 ± 12.56 min. In addition, the “Total impurity increment in 30 days” value in data set [1] came out at 0.91%. In [9], the AUClast is 3056 ± 1265 ng·h/mL, the Cmax is 125 ± 58 ng/mL and the T1/2 was 746.4 ± 128 min. Moreover, the “survival rate of mice, day 1” value in data set [4] (20 mg/kg intragastric once daily for 5 days, day 1) is given as 70%. The “survival rate of mice, day 2” value in data set [4] (20 mg/kg intragastric once daily for 5 days, day 2) is 70%. The “survival rate of mice, day 3” value in data set [4] (20 mg/kg intragastric once daily for 5 days, day 3) came to 60%. Also, in [4] (20 mg/kg intragastric once daily for 5 days, day 4), the “survival rate of mice, day 4” value is 60%. The “survival rate of mice, day 5” value in data set [4] (20 mg/kg intragastric once daily for 5 days, day 5) is given as 60%. Also, in data set [4] (20 mg/kg intragastric once daily for 5 days, day 6), the “survival rate of mice, day 6” value turned out to be 60%. Besides, in data set [4] (20 mg/kg intragastric once daily for 5 days, day 7), the “survival rate of mice, day 7” value worked out at 60%. This compound came in with a Solubility in data set [7] of 27.9 mg/mL.

The values are drawn from patent US10517867B2, “Posaconazole derivative, pharmaceutical composition and use thereof” (priority 2016, dated 2019).
